Series [1] addresses T1, caspase-1 (Homo sapiens, UniProt P29466).
T1 construct: MDA-MB231 cells and mDCs were co-cultured in chamber well; endogenous in cells; host or cells: human blood mDCs co-cultured with MDA-MB231 cells
T1 sequence (P29466 120-297 limits assumed): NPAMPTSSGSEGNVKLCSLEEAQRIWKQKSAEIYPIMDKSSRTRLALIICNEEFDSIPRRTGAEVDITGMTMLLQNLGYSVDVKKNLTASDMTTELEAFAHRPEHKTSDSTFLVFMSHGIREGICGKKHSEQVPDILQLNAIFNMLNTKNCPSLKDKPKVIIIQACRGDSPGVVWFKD
T1 sequence (P29466 317-404 limits assumed): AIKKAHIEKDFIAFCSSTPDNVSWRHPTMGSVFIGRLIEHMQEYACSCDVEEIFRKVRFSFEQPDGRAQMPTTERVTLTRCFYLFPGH
In words: MDA-MB231/mDC co-culture with caspase-1 inhibitor: proIL-1β and mature IL-1β staining. Type of series: cell-based. As for the experimental part: In most cases, caspase-1 is needed for proteolytic cleavage and secretion of mature IL-1β. It was tested whether TGF-β-dependent IL-1β production also required the activation of caspase-1. MDA-MB231 cells and mDCs were co-cultured in chamber well in presence of 1 uM of caspase-1 inhibitor or DMSO as vehicle control. 18 hours later, cells were fixed and stained with specific antibody against pro-peptide of IL-1β (FIG. 7A), or mature IL-1β (FIG. 7B), both accompanied with HLA-DR staining. […] Four areas were counted for the percentage of proIL-1β^+ cells within HLA-DR^+ cells for both DMSO or caspase-1 inhibitor treated wells. Almost 95% of mDCs show accumulation of proIL-1β intracellularly, while only around 50% of mDCs express proIL-1β (FIG. 7A right panel). Using a similar experimental system, mature IL-1β production in presence or absence of caspase-1 inhibitor was also measured.

For series [2], the system named is HS-578t or MDA-MB231 cells. Kind of series: TSLP induction in breast cancer cell lines by cytokines (real-time PCR, Luminex). As to conditions: for TSLP mRNA level by quantitative real-time PCR: HS-578t and MDA-MB231 cells, 10 ng/ml, as early as 2 hours. Format: cell-based, human. On the procedure: […] For tumor cells and mDCs coculture experiment, 100 k tumor cells were seeded in 24 well plate to grow overnight, then media was refreshed and 100 k mDCs were added to coculture for another 24-72 h. For the transwell experiment, 24-well-plate with inserts were used (Corning). 200K tumor cells were seeded in the plate to grow at least overnight, then 200 k mDCs were added into inserts. After 48 h of co-culture, supernantants were harvested to determine IL-1β level by ELISA (Duoset, R&D System).
Samples were treated and lysed with Buffer RLT, and then stored at −80° C. until RNA extraction. Total RNA was isolated and purified from each sample by using RNeasy kit and RNase-free DNase (Qiagen) according to the manufacturer's instructions. cDNA was generated from total RNA with iScript™ cDNA Synthesis Kit. The resulting cDNA was then used for quantitative gene expression analysis on a Sequence Detection System 7,500 (Applied Biosystems). The primers used were as follows: human (h)TSLP, 5′-[…]-3′ (SEQ ID NO:41) and 5′-[…]-3 (SEQ ID NO:42), and human (h)IL-1β, 5′-[…]-3′ (SEQ ID NO:43) and 5′-[…]-3′ (SEQ ID NO:44), human (h) GAPDH, 5′-[…]-3′ (SEQ ID NO:45) and 5′-[…]-3′ (SEQ ID NO:46), human (h) ABL1, 5′-[…]-3′ (SEQ ID NO:47) and 5′ […]-3′ (SEQ ID NO:48), human (h) PGK1, 5′-[…]-3′ (SEQ ID NO:49) and 5′-[…]-3′ (SEQ ID NO:50), human (h) PES1, 5′-[…]-3′ (SEQ ID NO:51) and 5′-A […]-3′ (SEQ ID NO:52). Equal amounts of cDNA were used with the iTaq SYBR Green Supermix with ROX (Bio-Rad) and primer mix according to the real-time PCR protocols supplied by the manufacturer. Amplification efficiencies were validated against the housekeeping gene, GAPDH, PES1, and ABL1. […] The relative quantification of target gene expression was done by the comparative cycle threshold (CT) method. […]
Different pro-inflammatory cytokines have the potential to induce TSLP from keratinocytes, both transcriptionally and translationally. […] Cells were harvested and TSLP mRNA levels were measured by quantitative real-time PCR (FIG. 4A). […] TSLP levels in the culture supernatants were determined by Luminex. […]

For series [3] the following is noted: 100 mg daily SC; cited from earlier work.
For series [4] the following is noted: pediatric patients with SOJIA; cited from earlier work.
For series [5], the system named is Hs-578t breast cancer cells. Kind of series: Tumor growth of Hs-578t xenograft in irradiated NOD/SCID/β2m−/− mice reconstituted with DCs and T cells. Type of series: in vivo. As for the experimental part: (§1) NOD/SCID/β2 m^−/− mice ([…]) were sublethally irradiated (12 cGy/g body weight of 137Cs γ irradiation) the day before tumor implantation. Then 10 million Hs-578t breast cancer cells harvested from cultures were injected subcutaneously into the flanks. Mice were then reconstituted with 1 million monocyte-derived DCs (MDDCs) and autologous T cells. CD4^+ and CD8^+ T cells were positively selected from thawed PBMCs using magnetic selection according to the manufacturer's instructions (Miltenyi Biotec). The purity was routinely >90%. 10 million CD4^+ T cells and 10 million CD8^+ T cells were transferred at days 3, 6, and 9 after tumor implantation. MDDCs were generated from the adherent fraction of PBMCs by culturing with 100 ng/ml GM-CSF and 10 ng/ml IL-4 (R&D Systems). Anakinra (2 mg/kg body weight) or PBS were injected daily in peritumor area since day 3 after tumor engraftment. 200 ug TSLPR blocking antibody was given on day 3,6,9. In some experiments, TGF-13 blocking antibody was given on day 3,6,9. Tumor size was monitored every 2-3 d. Tumor volume (ellipsoid) was calculated as follows: ([short diameter]^2×long diameter)/2. On day 16, the tumors were harvested. In some experiments, only one time DCs and total T cells transfer was done. Cell suspension was obtained from breast cancer tissue of above mice. Cell suspensions were obtained by digestion with 2.5 mg/ml of collagenase D (Roche Diagnostics, Indianapolis, Ind.), and 200 U/ml of DNAse I (Sigma-Aldrich, St. Louis, Mo.) for 30 minutes at 37° C. Washed three times and analyzed with FACS-CantoII (Becton Dickinson).
Thus, involvement of IL-1β in the TSLP-dependent in vivo model was evaluated. The availability of IL-1β in the xenograft mice model was first evaluated. HS-578t cells were injected subcutaneously into the flank of irradiated NOD/SCID/β2 m^−/− mice. MDDCs plus autologous total T cells were injected intratumorally on D3,6, and 9 after tumor cells injection (FIG. 15A). When tumors grew to 100-150 mm^3 in volume, mice were sacrificed and tumors were frozen in OCT for tissue staining. Similar with what observed in patient primary tumors (FIG. 5), IL-1β^+ cells also infiltrated in the tumor of xenograft model (FIG. 15B). […] Then we tried to understand whether TGF-β or IL-1β blocking could affect tumor growth through affecting the availability of IL-1β. Anti-TGF-β neutralizing antibody, isotype antibody as control, IL-1R antagonist Anakinra, or anti-TSLPR neutralizing antibody were each injected together with DC plus T cells (FIG. 15A). […] In some experiments, small pieces of tumor tissue from mice were cultured for 16 hours in the presence of PMA and ionomycin. Th2 cytokines were measured by Luminex in the culture sups (FIG. 8B).

The subject of series [6] is CD4^+CD3^+T cells. In words: Intracellular cytokine FACS of CD4+CD3+ T cells from xenograft tumors. Format: in vivo, mice. As for the experimental part:
as §1
To confirm whether the decreased IL-13 level is due to less infiltration of IL-13 producing cells, single cell suspensions were prepared from the tumors harvested from both the PBS and the Anakinra treatment groups. Intracellular staining for cytokines including IL-13, IL-4, TNF-α, and IFN-γ were combined with CD4, CD3 surface staining. Cells were analyzed by FACS, and gated on viable CD4^+CD3^+T cells. […] In the PBS group, about 10.2-46.4% of CD4^+CD3^+T cells express IL-13. […]

Series [7] concerns Th2 cytokines. Kind of series: Cytokines by Luminex in supernatants of day 16 mouse tumor fragments stimulated with PMA and ionomycin. As to conditions: day 16 tumors; versus PBS group. Format: in vivo, mice. As for the experimental part:
as §1
Thus, involvement of IL-1β in the TSLP-dependent in vivo model was evaluated. The availability of IL-1β in the xenograft mice model was first evaluated. HS-578t cells were injected subcutaneously into the flank of irradiated NOD/SCID/β2 m^−/− mice. MDDCs plus autologous total T cells were injected intratumorally on D3,6, and 9 after tumor cells injection (FIG. 15A). […] Th2 cytokines were measured by Luminex in the culture sups (FIG. 8B).

Where [8] appears, read: xenograft model, summary statement.
[9] abbreviates: tumors harvested from Anakinra treatment group.

The star is where a group is joined. Cbz = O=C(OCc1ccccc1)*; CH2F = FC* A value given as a limit tells only on which side of the number the result lay.

Turning to Cbz-WEHD-CH2F [caspase-1 inhibitor], the “percentage of proIL-1β+ cells within HLA-DR+ cells” value in series [1] (1 uM caspase-1 inhibitor, MDA-MB231 cells and mDCs co-cultured 18 hours) is on record as approximately 95%. Moreover, the “mature IL-1β staining” value in series [1] (caspase-1 inhibitor, MDA-MB231 cells and mDCs co-culture) is on record as “less mature IL-1β was detected”.

Consider IL-1β: cytokine obtained from R&D, for which the “TSLP mRNA level by quantitative real-time PCR” value in series [2] is given as “induce significant TSLP transcription”. For the same molecule, the “TSLP levels in the culture supernatants (Luminex)” value in series [2] (MDA-MB231 cells, different doses, 48 hours) is reported as “induce TSLP production in a dose-dependent manner”.

As to “Anakinra: recombinant soluble non-glycosylated homolog of the human interleukin-1 receptor antagonist (IL-1Ra)”, in series [3], the “most common adverse reaction” value is “injection site reaction” and the safety profile result was “favorable safety profile”. Further, the “patients with remarkable clinical and hematological responses” value in series [4] is > 70 % of patients. Moreover, the “tumor volume (mean)” value in series [5] (day 16, Anakinra 2 mg/kg daily peritumoral since day 3) was found to be 13 mm^3. The “tumor volume increase in PBS group compared to the Anakinra group” value in series [5] (end of the observation, day 16) is approximately 10 fold. Further, the “OX40L+ expression on DCs” value in series [5] (in vivo) is “blocks OX40L+ expression on DCs”. Moreover, the “tumor growth in vivo” value in series [5] (setting [8]) is “prevents tumor growth in vivo”. In series [6] (setting [9]), the “CD4^+CD3^+T cells expressing IL-13” value is listed as 0.39-2.5%; the “effect on TNF-α and IFN-γ in CD4^+CD3^+T cells” value is “no specific effect on TNF-α and IFN-γ”. The “iTh2 generation in vivo” value in series [6] (setting [8]) is on record as “blocks iTh2 generation in vivo”. In addition, in series [7], the “IL-4 in tumor tissue culture sups” value was “less IL-4”, the “IL-13 in tumor tissue culture sups” value is “less IL-13” and the “TSLP production in tumor tissue” value is “less TSLP production”.

B1: IL-1α: cytokine obtained from R&D (protein, UniProt P01583 113-271, looked up)
Interleukin-1 alpha: SAPFSFLSNVKYNFMRIIKYEFILNDALNQSIIRANDQYLTAAALHNLDEAVKFDMGAYKSSKDDAKITVILRISKTQLYVTAQDEDQPVLLKEMPEIPKTITGSETNLLFFWETHGTKNYFTSVAHPNLFIATKQDYWVCLAGGPPSITDFQILENQA
Regarding B1, the “TSLP mRNA level by quantitative real-time PCR” value in series [2] is listed as “induce significant TSLP transcription”.

These data come from US10023841B2, “Methods and compositions for treating breast cancer with dendritic cell vaccines” (Baylor Research Institute, priority 2014, dated 2018).
